According to ChEMBL document CHEMBL5393453, “Compositions and methods of using the same for treatment of neurodegenerative and mitochondrial disease” (2021):

How the values were obtained:
[1] = Cytotoxicity against human HeLa cells expressing YFP parkin treated with FCCP/ oligomycin assessed as highest safety dose by DAPI staining analysis; type: toxicity, cell-based; conditions: read-out: Activity
[2] = Cytotoxicity against human HeLa cells expressing YFP parkin assessed as highest safety dose by DAPI staining analysis; type: toxicity, cell-based; conditions: read-out: Activity

Row | SMILES | MNTC [1] | MNTC [2]
1 | CO[C@@H]1CCN([C@H]2COc3ccccc3[C@@H]2Nc2ncnc3[nH]c(C(F)(F)F)cc23)C1 | 3.4 µM | 25 µM
2 | FC(F)(F)c1cc2c(N[C@@H]3c4ccccc4CC[C@H]3N3C[C@H]4COC[C@H]4C3)ncnc2[nH]1 (single isomer, unassigned) | 9.1 µM | 25 µM
3 | C[C@@H]1CN([C@@H]2COc3cc(F)ccc3[C@H]2Nc2ncnc3[nH]c(C(F)(F)F)cc23)C[C@H](C)O1 | 2.2 µM | 25 µM
4 | Fc1ccc2c(c1)OC[C@@H](N1C[C@H]3COC[C@H]3C1)[C@@H]2Nc1ncnc2[nH]c(C3CC3)cc12 | 16 µM | 25 µM
5 | c1ccc2c(c1)OC[C@@H](C1CCOCC1)[C@@H]2Nc1ncnc2[nH]c(C3CC3)cc12 | 3.2 µM | 25 µM
6 | c1ccc2c(c1)CC[C@@H](N1CCOCC1)[C@@H]2Nc1ncnc2[nH]c(C3CC3)cc12 (single isomer, unassigned) | 25 µM | 25 µM
7 | C[C@@H]1CN([C@@H]2COc3ccccc3[C@H]2Nc2ncnc3[nH]c(C4CC4)cc23)CCO1 | 1.7 µM | 25 µM
8 | Fc1ccc2c(c1)CC[C@H](N1C[C@H]3COC[C@H]3C1)[C@H]2Nc1ncnc2[nH]c(C3CC3)cc12 | 10.3 µM | 25 µM
9 | COC1CN([C@H]2COc3ccccc3[C@@H]2Nc2ncnc3[nH]c(C(F)(F)F)cc23)C1 | 8.3 µM | 8.3 µM
10 | [2H]C([2H])([2H])OC1CN([C@H]2COc3ccccc3[C@@H]2Nc2ncnc3[nH]c(C(F)(F)F)cc23)C1 | 19.8 µM | 25 µM
11 | C[C@H]1CN([C@H]2CCc3ccccc3[C@@H]2Nc2ncnc3[nH]c(C4CC4)cc23)CCO1 (single isomer, unassigned) | 3.5 µM | 25 µM
12 | C[C@@H]1CN([C@H]2COc3cc(F)ccc3[C@@H]2Nc2ncnc3[nH]c(C4CC4)cc23)CCO1 | 2 µM | 16.7 µM
13 | C[C@@H]1CN([C@@H]2COc3ccccc3[C@H]2Nc2ncnc3[nH]c(C4CC4)cc23)C[C@H](C)O1 | 1.2 µM | 25 µM
14 | FC(F)(F)c1cc2c(N[C@H]3c4ccccc4OC[C@H]3C3CCCOC3)ncnc2[nH]1 (mixture of isomers) | 25 µM | 25 µM
15 | Fc1ccc2c(c1)CC[C@H](N1C[C@H]3COC[C@@H]3C1)[C@H]2Nc1ncnc2[nH]c(C3CC3)cc12 | 11.7 µM | 25 µM
16 | COC1CN([C@H]2COc3ccccc3[C@@H]2Nc2ncnc3[nH]c(C4CC4)cc23)C1 | 25 µM | 25 µM
17 | FC(F)(F)c1cc2c(N[C@@H]3c4ccccc4OC[C@H]3C3CCOCC3)ncnc2[nH]1 (single isomer, unassigned) | 4.7 µM | 25 µM
18 | FC(F)(F)c1cc2c(NC3c4ccccc4OCC3N3C[C@@H]4COC[C@H]4C3)ncnc2[nH]1 (stereo partly specified) | 25 µM | 25 µM
19 | C[C@@H]1CN([C@H]2COc3ccccc3[C@@H]2Nc2ncnc3[nH]c(C4CC4)cc23)C[C@H](C)O1 (single isomer, unassigned) | 2.3 µM | 25 µM
20 | Fc1ccc2c(c1)CC[C@H](N1C[C@@H]3COC[C@H]3C1)[C@H]2Nc1ncnc2[nH]c(C3CC3)cc12 | 25 µM | 25 µM
21 | C[C@@H]1CN([C@@H]2COc3ccccc3[C@H]2Nc2ncnc3[nH]c(C(F)(F)F)cc23)CCO1 | 9.7 µM | 25 µM
22 | C[C@@H]1CN([C@@H]2COc3cc(F)ccc3[C@H]2Nc2ncnc3[nH]c(C4CC4)cc23)C[C@H](C)O1 | 1.2 µM | 25 µM
23 | Fc1ccc2c(c1)OC[C@H](N1C[C@@H]3COC[C@H]3C1)[C@H]2Nc1ncnc2[nH]c(C3CC3)cc12 (single isomer, unassigned) | 13.9 µM | 25 µM

Row | SMILES | MNTC [1] | MNTC [2]
24 | C[C@@H]1CN([C@H]2COc3ccccc3[C@@H]2Nc2ncnc3[nH]c(C(F)(F)F)cc23)C[C@H](C)O1 (single isomer, unassigned) | 7.1 µM | 25 µM
25 | C[C@@H]1CN([C@H]2COc3cc(F)ccc3[C@@H]2Nc2ncnc3[nH]c(C(F)(F)F)cc23)C[C@H](C)O1 (single isomer, unassigned) | 9.9 µM | 25 µM
26 | C[C@@H]1CN([C@H]2COc3cc(F)ccc3[C@@H]2Nc2ncnc3[nH]c(C4CC4)cc23)C[C@H](C)O1 (single isomer, unassigned) | 2 µM | 25 µM
27 | FC(F)(F)c1cc2c(N[C@H]3c4ccccc4OC[C@@H]3C3CCOCC3)ncnc2[nH]1 (single isomer, unassigned) | 25 µM | 25 µM
28 | CO[C@H]1CCN([C@H]2COc3ccccc3[C@@H]2Nc2ncnc3[nH]c(C(F)(F)F)cc23)C1 | 1.1 µM | 25 µM
29 | c1ccc2c(c1)CC[C@H](C1CCOCC1)[C@H]2Nc1ncnc2[nH]c(C3CC3)cc12 (single isomer, unassigned) | 2.1 µM | 25 µM
30 | FC(F)(F)c1cc2c(N[C@@H]3c4ccccc4OC[C@@H]3C3CCCOC3)ncnc2[nH]1 (single isomer, unassigned) | 25 µM | 25 µM
31 | COC[C@H]1CCN([C@H]2COc3ccccc3[C@@H]2Nc2ncnc3[nH]c(C(F)(F)F)cc23)C1 (single isomer, unassigned) | 4.5 µM | 25 µM
32 | FC(F)(F)c1cc2c(N[C@H]3c4ccccc4OC[C@@H]3N3C[C@H]4COC[C@H]4C3)ncnc2[nH]1 | 25 µM | 25 µM
33 | CO[C@H]1CCN([C@H]2COc3ccccc3[C@@H]2Nc2ncnc3[nH]c(C4CC4)cc23)C1 | 1.1 µM | 25 µM
34 | c1ccc2c(c1)CC[C@H](N1C[C@@H]3COC[C@H]3C1)[C@H]2Nc1ncnc2[nH]c(C3CC3)cc12 | 3 µM | 25 µM
35 | C[C@@H]1CN([C@H]2CCc3ccccc3[C@@H]2Nc2ncnc3[nH]c(C(F)(F)F)cc23)CCO1 (single isomer, unassigned) | 3.7 µM | 25 µM
36 | C[C@H]1CN([C@@H]2COc3ccccc3[C@H]2Nc2ncnc3[nH]c(C(F)(F)F)cc23)CCO1 | 19.4 µM | 19.4 µM
37 | COC[C@H]1CCN([C@H]2COc3ccccc3[C@@H]2Nc2ncnc3[nH]c(C4CC4)cc23)C1 | 3.6 µM | 25 µM
38 | Fc1ccc2c(c1)CC[C@H](N1C[C@H]3COC[C@@H]3C1)[C@H]2Nc1ncnc2[nH]c(C(F)(F)F)cc12 | 9.1 µM | 25 µM
39 | c1ccc2c(c1)CC[C@H](N1CCOCC1)[C@H]2Nc1ncnc2[nH]c(C3CC3)cc12 | 2.8 µM | 25 µM
40 | Fc1ccc2c(c1)CC[C@@H](N1C[C@H]3COC[C@H]3C1)[C@@H]2Nc1ncnc2[nH]c(C(F)(F)F)cc12 (single isomer, unassigned) | 8.3 µM | 8.3 µM
41 | C[C@H]1CN([C@@H]2COc3cc(F)ccc3[C@H]2Nc2ncnc3[nH]c(C4CC4)cc23)CCO1 | 7.4 µM | 25 µM
42 | c1ccc2c(c1)CC[C@@H](N1C[C@H]3COC[C@@H]3C1)[C@@H]2Nc1ncnc2[nH]c(C3CC3)cc12 |  | 25 µM
43 | FC(F)OC1CN([C@H]2COc3ccccc3[C@@H]2Nc2ncnc3[nH]c(C(F)(F)F)cc23)C1 |  | 25 µM
44 | FC(F)(F)c1cc2c(N[C@@H]3c4ccccc4OC[C@H]3C3CCCOC3)ncnc2[nH]1 (stereo partly specified) |  | 25 µM
45 | C[C@@H]1CN([C@@H]2CCc3ccccc3[C@H]2Nc2ncnc3[nH]c(C4CC4)cc23)CCO1 (single isomer, unassigned) |  | 25 µM
